Reference: patent US10875871B2, “Photosensitizer” (Tampereen Korkeakoulusäätiö sr, priority 2016, dated 2020)
“Also recorded” adds a separate entry of the source.

Assays:
[1] = system: Escherichia coli (XL1-Blue) carrying plasmid pBAV1C-T5-lux; assay: Screening test with bioluminescent E. coli on dyed filter paper discs; format: cell-based; conditions: dyed filter paper discs on LA agar, 1 hour illumination, 18 mWcm−2
Procedure: (§1) The efficiency of dyes (Pc1, Pc2, Pc3, Pc4) was screened by conducting antimicrobial test with bioluminescent bacterial strains Escherichia coli (XL1-Blue, Stratagene, USA) and Acinetobacter baylyi ADP1 (DSM 24193) carrying plasmid pBAV1C-T5-lux (the plasmid is chloramphenicol resistance derivate of the pBAV1K-T5-lux plasmid (Addgene #55800). The filter papers (12.25 cm^2) were soaked in respective dye solution (0.9 mg dye in 200 μl solvent) and allowed to dry on it. After drying, three circular discs (0.5 cm diameter) were cut from each filter paper and pasted on the LA agar (15 g/l agar, 10 g/l tryptone, 5 g/l yeast extract, 5 g/l NaCl) gel plate in such a way that each row corresponds to each dye. A circular dark screen of 0.3 cm height with a square hole in the center was placed over the agar plate. The square hole was cut in such a way that, one column which includes all the four dyes will be under the dark area of the screen while the two remaining columns will be inside the square hole. Two filters [KG3 band pass filter (315-750 nm transmittance) and ? […] Luminescence arising from the setup was recorded (Xenogen IVIS 100) before the microbial deposition on the filter paper discs. […] Luminescence of the agar plate before and after illumination of 1 hour was measured and the efficient dye which produces less luminescence was screened out from the set.

[2] = system: Acinetobacter baylyi ADP1 carrying plasmid pBAV1C-T5-lux; assay: Screening test with bioluminescent Acinetobacter baylyi on dyed filter paper discs; format: cell-based; conditions: dyed filter paper discs on LA agar, 1 hour illumination, 18 mWcm−2
Procedure: as §1

[3] = system: A. baylyi ADP1; assay: Colony forming unit (CFU) method, solar simulator; format: cell-based, Acinetobacter baylyi; conditions: for Colony counts after incubation / CFU/ml / Colony counts after incubation (Average) / Colony counts after incubation (Duplicate): Acinetobacter baylyi
Procedure: (§2) The antimicrobial efficiency of the dye was confirmed by CFU method using microbes E. coli MG1655 (E. coli Genetic Resources at Yale) and A. baylyi ADP1 (ATCC 33305). […] The microplate was illuminated in the solar simulator for 1 hour. UV-IR radiations were cut off using a combination of KG3 band pass filter (315-750 nm transmittance) and ? c-17 yellow filter (transmittance >485 nm). Similarly, light control samples were prepared by depositing microbial medium over dyed and un-dyed samples by covering microplate with aluminum foil for 1 h at room temperature. After 1 h of illumination or incubation, the microbes were extracted with LB medium (10 g/l tryptone, 5 g/l yeast extract, 5 g/l NaCl) (975 μl) and serial dilutions were made from each extract. The dilutions were then plated on LA agar plates and incubated at 30° C. overnight. The number of colonies grown on the agar plate was counted and CFUs per milliliter were calculated from it.

[4] = system: A. baylyi; assay: Antimicrobial inactivation under consumer LED lamp; format: cell-based, Acinetobacter baylyi; conditions: dyed filter paper, 1 h illumination from LED lamp
Procedure: as §2, with “The microplate was illuminated in the solar simulator for 1 hour.” left out
The spectrum of light emitted from the lamp prior to the experiments was measured. […] In addition, the power density of the lamp was also measured at different distances. […] The absorptance of phthalocyanine Pc4 and porphyrin ZnPf papers were calculated from reflectance and transmittance measurement of dyed papers using integrating sphere (IS) detector. The absorptance profiles were very similar to the absorbance measurement in solution. […]

[5] = Leeching test of dyed paper in PBS buffer; format: physicochemical
Procedure: Stability of the dye Pc4 against was tested with PBS buffer pH 7.2. The absorbance and emission of PBS buffer incubated with dye papers were measured for checking the leeching (FIGS. 9a and b). […] Absorbance and emission of PBS buffer from each vial was measured after 1 h to check the leeching of dyes from papers.

[6] = Pc4 filter paper-Dark 1 h, dilution factor 2.50E−05, 0.1 ml plated
[7] = Pc4 filter paper-Dark 1 h, dilution factor 2.50E−06, 0.1 ml plated
[8] = Pc4 filter paper-Dark 1 h, dilution factor 2.50E−07, 0.1 ml plated
[9] = illuminated Pc4 filter paper 1 h, dilution factor 2.50E−03, 0.1 ml plated
[10] = illuminated Pc4 filter paper 1 h, dilution factor 2.50E−04, 0.1 ml plated
[11] = illuminated Pc4 filter paper 1 h, dilution factor 2.50E−05, 0.1 ml plated
[12] = illuminated Pc4 filter paper 1 h, dilution factor 2.50E−06, 0.1 ml plated
[13] = illuminated Pc4 filter paper 1 h, dilution factor 2.50E−07, 0.1 ml plated

Substance: {4,4′,4″,4″-(29H,31H-phthalocyanine-1(4),8(11),15(18),22(25)-tetrayl-κ 4N29,N30,N31,N32)tetrakis [1-methylpyridiniumato(2-)]}zinc(4+) tetraiodide [Pc4]
- efficiency of dye (luminescence after illumination) [1]: most efficient
- efficiency of dye (luminescence after illumination) [2]: most efficient
- microbial growth on plates ([3]; A. baylyi, illuminated Pc4 filter paper, 1 hour solar simulator): No microbial growth
- Colony counts after incubation ([3]; Pc4 filter paper-Dark 1 h, dilution factor 2.50E−03, 0.1 ml plated): Too many to count
- Colony counts after incubation ([3]; Pc4 filter paper-Dark 1 h, dilution factor 2.50E−04, 0.1 ml plated): Too many to count
- CFU/ml [3, 6]: 7.06E+07 CFU/ml
- Colony counts after incubation [3, 6]: 175
- Colony counts after incubation (Average) [3, 6]: 176.5
- Colony counts after incubation (Duplicate) [3, 6]: 178
- CFU/ml [3, 7]: 5.20E+07 CFU/ml
- Colony counts after incubation [3, 7]: 22
- Colony counts after incubation (Average) [3, 7]: 13
- Colony counts after incubation (Duplicate) [3, 7]: 4
- CFU/ml [3, 8]: 1.40E+08 CFU/ml
- Colony counts after incubation [3, 8]: 6
- Colony counts after incubation (Average) [3, 8]: 3.5
- Colony counts after incubation (Duplicate) [3, 8]: 1
- CFU/ml [3, 9]: 0.00E+00 CFU/ml
- Colony counts after incubation [3, 9]: 0
- Colony counts after incubation (Average) [3, 9]: 0
- Colony counts after incubation (Duplicate) [3, 9]: 0
- CFU/ml [3, 10]: 0.00E+00 CFU/ml
- Colony counts after incubation [3, 10]: 0
- Colony counts after incubation (Average) [3, 10]: 0
- Colony counts after incubation (Duplicate) [3, 10]: 0
- CFU/ml [3, 11]: 0.00E+00 CFU/ml
- Colony counts after incubation [3, 11]: 0
- Colony counts after incubation (Average) [3, 11]: 0
- Colony counts after incubation (Duplicate) [3, 11]: 0
- CFU/ml [3, 12]: 0.00E+00 CFU/ml
- Colony counts after incubation [3, 12]: 0
- Colony counts after incubation (Average) [3, 12]: 0
- Colony counts after incubation (Duplicate) [3, 12]: 0
- CFU/ml [3, 13]: 0.00E+00 CFU/ml
- Colony counts after incubation [3, 13]: 0
- Colony counts after incubation (Average) [3, 13]: 0
- Colony counts after incubation (Duplicate) [3, 13]: 0
- inactivation of microorganisms [4]: complete inactivation
- absorbance of PBS extract of dyed paper (leeching) ([5]; PBS pH 7.2, 20 h of incubation at room temperature): did not show any peak corresponding to the dye
- emission of PBS extract of dyed paper (leeching) ([5]; PBS pH 7.2, excitation at 694 nm): very faint emission peak of negligible intensity
- stability against leeching from paper ([5]; dye impregnated on filter paper, PBS buffer pH 7.2): exceptionally high stability against leeching; also recorded: does not release back to solution
